Measurements from ChEMBL document CHEMBL5113512, “β-Nitrostyrene derivatives as broad range potential antifungal agents targeting fungal cell wall” (2022).
Converted amounts (≈) assume the structure as drawn.

Tests used:
Assay type in all cases: functional
[1] = system: Candida albicans; experiment: Antifungal activity against Candida albicans SN152 harboring CAS5 mutant assessed as inhibition of fungal growth by broth microdilution method
[2] = system: Candida albicans; experiment: Antifungal activity against wild type Candida albicans SN152 assessed as inhibition of fungal growth by broth microdilution method
[3] = system: [Candida] auris; experiment: Antifungal activity against wild type Candida auris 102 assessed as inhibition of fungal growth by broth microdilution method; details: Candidozyma auris
[4] = system: Candida albicans; experiment: Antifungal activity against Candida albicans ATCC 24433 overexpressing transporter protein F5 assessed as inhibition of fungal growth by broth microdilution method
[5] = system: Candida parapsilosis; experiment: Antifungal activity against Candida parapsilosis ATCC 90018 assessed as inhibition of fungal growth by broth microdilution method; details: Lodderomyces parapsilosis
[6] = system: [Candida] auris; experiment: Antifungal activity against Candida auris 105 assessed as inhibition of fungal growth by broth microdilution method; details: Candidozyma auris
[7] = system: Candida albicans; experiment: Antifungal activity against Candida albicans ATCC 24433 assessed as inhibition of fungal growth by broth microdilution method
[8] = system: Candida albicans; experiment: Antifungal activity against Candida albicans ATCC 24433 overexpressing ADCDR1-GFP assessed as inhibition of fungal growth by broth microdilution method
[9] = system: Candida albicans; experiment: Antifungal activity against Candida albicans ATCC 24433 overexpressing AD(1-8)u-assessed as inhibition of fungal growth by broth microdilution method
[10] = system: Candida albicans; experiment: Antifungal activity against Candida albicans ATCC 24433 overexpressing transporter protein GU5 assessed as inhibition of fungal growth by broth microdilution method
[11] = system: Candida tropicalis; experiment: Antifungal activity against Candida tropicalis ATCC 750 assessed as inhibition of fungal growth by broth microdilution method
[12] = system: [Candida] auris; experiment: Antifungal activity against Candida auris 118 assessed as inhibition of fungal growth by broth microdilution method; details: Candidozyma auris
[13] = system: Candida albicans; experiment: Antifungal activity against Candida albicans ATCC 24433 overexpressing ADPDR5-GFP assessed as inhibition of fungal growth by broth microdilution method
[14] = system: Candida albicans; experiment: Antifungal activity against Candida albicans ATCC 24433 overexpressing ADCaMDR1-GFP assessed as inhibition of fungal growth by broth microdilution method
[15] = system: Candida albicans; experiment: Antifungal activity against Candida albicans ATCC 24433 overexpressing transporter protein GU4 assessed as inhibition of fungal growth by broth microdilution method
[16] = system: Candida albicans; experiment: Antifungal activity against Candida albicans ATCC 24433 overexpressing transporter protein F2 assessed as inhibition of fungal growth by broth microdilution method
[17] = system: [Candida] auris; experiment: Antifungal activity against Candida auris 102 assessed as inhibition of fungal growth by broth microdilution method; details: Candidozyma auris
[18] = system: Nakaseomyces glabratus; experiment: Antifungal activity against Candida glabrata ATCC 2001 assessed as inhibition of fungal growth by broth microdilution method
[19] = system: Candida albicans; experiment: Synergistic antifungal activity against Candida albicans ATCC 24433 overexpressing ADPDR5-G assessed as fractional inhibitory concentration index incubated for 48 hrs in presence of caspofungin by checker board assay
[20] = system: Candida albicans; experiment: Synergistic antifungal activity against Candida albicans ATCC 24433 overexpressing ADCDR1-GFP assessed as fractional inhibitory concentration index incubated for 48 hrs in presence of caspofungin by checker board assay
[21] = system: Candida albicans; experiment: Synergistic antifungal activity against Candida albicans ATCC 24433 overexpressing ADCaMDR1-GFP assessed as fractional inhibitory concentration index incubated for 48 hrs in presence of caspofungin by checker board assay
[22] = system: Candida albicans; experiment: Synergistic antifungal activity against Candida albicans ATCC 24433 assessed as fractional inhibitory concentration index incubated for 48 hrs in presence of caspofungin by checker board assay

| Structure (SMILES) | MIC80 [1] | MIC80 [2] | MIC80 [3] | MIC80 [4] | MIC80 [5] | MIC80 [6] | MIC80 [7] | MIC80 [8] | MIC80 [9] | MIC80 [10] | MIC80 [11] | MIC80 [12] | MIC80 [13] | MIC80 [14] | MIC80 [15] | MIC80 [16] | MIC80 [17] | MIC80 [18] | fractional inhibitory concentration index (FICI) [19] | fractional inhibitory concentration index (FICI) [20] | other results |
| --- | --- | --- | --- | --- | --- | --- | --- | --- | --- | --- | --- | --- | --- | --- | --- | --- | --- | --- | --- | --- | --- |
| C[C@@H]1[C@H](O)[C@@H](C)/C=C/C=C/C=C/C=C/C=C/C=C/C=C/[C@H](O[C@@H]2O[C@H](C)[C@@H](O)[C@H](N)[C@@H]2O)C[C@@H]2O[C@](O)(C[C@@H](O)C[C@@H](O)[C@H](O)CC[C@@H](O)C[C@@H](O)CC(=O)O[C@H]1C)C[C@H](O)[C@H]2C(=O)O [AMPHOTERICIN B] | 0.5 µg/mL (≈ 0.541 µM) | 0.5 µg/mL (≈ 0.541 µM) |  |  |  |  |  |  |  |  |  |  |  |  |  |  |  |  |  |  |  |
| COc1ccc(/C=C/[N+](=O)[O-])cc1OC |  |  | 4 µg/mL (≈ 19.1 µM) | 16 µg/mL (≈ 76.5 µM) | 32 µg/mL (≈ 153 µM) | 8 µg/mL (≈ 38.2 µM) | 32 µg/mL (≈ 153 µM) | 32 µg/mL (≈ 153 µM) | 16 µg/mL (≈ 76.5 µM) | 16 µg/mL (≈ 76.5 µM) | 16 µg/mL (≈ 76.5 µM) | 4 µg/mL (≈ 19.1 µM) | 16 µg/mL (≈ 76.5 µM) | 16 µg/mL (≈ 76.5 µM) | 32 µg/mL (≈ 153 µM) | 16 µg/mL (≈ 76.5 µM) | 8 µg/mL (≈ 38.2 µM) | 32 µg/mL (≈ 153 µM) |  |  |  |
| O=[N+]([O-])/C=C/c1cccc(O)c1 | 8 µg/mL (≈ 48.4 µM) | 16 µg/mL (≈ 96.9 µM) | 8 µg/mL (≈ 48.4 µM) | 8 µg/mL (≈ 48.4 µM) | 16 µg/mL (≈ 96.9 µM) | 8 µg/mL (≈ 48.4 µM) | 16 µg/mL (≈ 96.9 µM) | 16 µg/mL (≈ 96.9 µM) | 16 µg/mL (≈ 96.9 µM) | 16 µg/mL (≈ 96.9 µM) | > 32 µg/mL | 8 µg/mL (≈ 48.4 µM) | 4 µg/mL (≈ 24.2 µM) | 4 µg/mL (≈ 24.2 µM) | 32 µg/mL (≈ 194 µM) | 16 µg/mL (≈ 96.9 µM) | 8 µg/mL (≈ 48.4 µM) | 16 µg/mL (≈ 96.9 µM) | <0.5 | <0.5 | fractional inhibitory concentration index (FICI) [21]: <0.5 |
| CC/C(=C\c1cccc([N+](=O)[O-])c1)[N+](=O)[O-] | 8 µg/mL (≈ 36 µM) | 16 µg/mL (≈ 72 µM) | 8 µg/mL (≈ 36 µM) | 4 µg/mL (≈ 18 µM) | 32 µg/mL (≈ 144 µM) | 8 µg/mL (≈ 36 µM) | 32 µg/mL (≈ 144 µM) | 16 µg/mL (≈ 72 µM) | 16 µg/mL (≈ 72 µM) | 16 µg/mL (≈ 72 µM) | 16 µg/mL (≈ 72 µM) | 8 µg/mL (≈ 36 µM) | 16 µg/mL (≈ 72 µM) | 8 µg/mL (≈ 36 µM) | 8 µg/mL (≈ 36 µM) | 4 µg/mL (≈ 18 µM) | 8 µg/mL (≈ 36 µM) | 16 µg/mL (≈ 72 µM) | <0.5 | <0.5 | fractional inhibitory concentration index (FICI) [21]: <0.5; fractional inhibitory concentration index (FICI) [22]: <0.5 |
| CC/C(=C\c1ccc(OC)c(OC)c1)[N+](=O)[O-] |  |  | 8 µg/mL (≈ 33.7 µM) | 8 µg/mL (≈ 33.7 µM) | 32 µg/mL (≈ 135 µM) | 8 µg/mL (≈ 33.7 µM) | 16 µg/mL (≈ 67.4 µM) | 32 µg/mL (≈ 135 µM) | 16 µg/mL (≈ 67.4 µM) | 8 µg/mL (≈ 33.7 µM) | 16 µg/mL (≈ 67.4 µM) | 8 µg/mL (≈ 33.7 µM) | 8 µg/mL (≈ 33.7 µM) | 8 µg/mL (≈ 33.7 µM) | 16 µg/mL (≈ 67.4 µM) | 8 µg/mL (≈ 33.7 µM) | 8 µg/mL (≈ 33.7 µM) | 32 µg/mL (≈ 135 µM) | <0.5 | <0.5 | fractional inhibitory concentration index (FICI) [21]: <0.5 |
